Results reported in ChEMBL document CHEMBL5528043, “Development of Potent Mcl-1 Inhibitors: Structural Investigations on Macrocycles Originating from a DNA-Encoded Chemical Library Screen” (J Med Chem, 2024).
≈ marks a conversion by molar mass, not a printed value.

Columns and labels:
[1] = molecular target: Induced myeloid leukemia cell differentiation protein Mcl-1 (Homo sapiens, UniProt Q07820); experiment: Inhibition of Mcl-1 (172-327) (unknown origin) using BIOTIN-AHXGQVGRQLAIIGDDINR-amide peptide by TR-FRET based BAK peptide displacement assay
Induced myeloid leukemia cell differentiation protein Mcl-1, sequence (Q07820 whole entry): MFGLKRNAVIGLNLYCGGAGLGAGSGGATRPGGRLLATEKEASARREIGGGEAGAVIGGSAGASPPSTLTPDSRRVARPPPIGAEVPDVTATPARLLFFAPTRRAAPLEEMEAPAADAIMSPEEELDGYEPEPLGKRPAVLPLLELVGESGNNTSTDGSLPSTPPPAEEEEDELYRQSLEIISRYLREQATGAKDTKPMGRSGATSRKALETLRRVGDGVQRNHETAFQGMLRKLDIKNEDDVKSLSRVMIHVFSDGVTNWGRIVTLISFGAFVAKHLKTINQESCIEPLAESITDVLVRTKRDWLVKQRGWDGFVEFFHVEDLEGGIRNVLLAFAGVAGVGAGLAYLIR

NCI-H929 [2] = experiment: Cytotoxicity against human NCI-H929 cells assessed as cell viability measured after 72 hrs incubation by CellTiterGlo assay; format: functional, cell-based; details: NCI-H929, 72 h
[3] = Kinetic solubility of the compound in pH 7.4 buffer measured after 24 hrs by LC-UV analysis; format: physicochemical; details: read-out: Kinetic_solubility
NCI-H929 [4] = experiment: Cytotoxicity against human NCI-H929 cells assessed as […] by measuring caspase 3/7 activity measured after 6 hrs by luminescence assay; format: functional, cell-based; details: NCI-H929, 6 h

| Compound | IC50 [1] | solubility kinetic at 24 h [3] | IC50 (NCI-H929 [2]) | IC50 (NCI-H929 [4]) |
| --- | --- | --- | --- | --- |
| CCOc1cccc2c1OCC(=O)N[C@H]1CC[C@H](CC1)CC(=O)N[C@@H](CC(C)C)C(=O)N[C@H](CC1CCCCC1)C(=O)N[C@H](C(=O)NC)Cc1ccc(cc1)OC2 | 98 nM | – | – | – |
| CCOc1cccc2c1OC(C)(C)C(=O)N[C@H]1CC[C@H](CC1)CC(=O)N[C@@H](C(C)C)C(=O)N[C@H](Cc1ccccc1)C(=O)NCCc1ccc(cc1)OC2 | 137 nM | – | – | – |
| CCOc1cccc2c1OCC(=O)N[C@H]1CC[C@H](CC1)CC(=O)N(c1ccccc1)CC(=O)N(Cc1ccccc1)CC(=O)NCCc1ccc(cc1)OC2 | > 30000 nM | – | – | – |
| CCOc1cccc2c1OCC(=O)N[C@H]1CC[C@H](CC1)CC(=O)N(c1ccccc1)CC(=O)N[C@H](Cc1ccccc1)C(=O)NCCc1ccc(cc1)OC2 | > 30000 nM | – | – | – |
| CCOc1cccc2c1OCC(=O)N[C@H]1CC[C@H](CC1)CC(=O)N[C@@H](Cc1c[nH]cn1)C(=O)N[C@H](Cc1ccccc1)C(=O)NCCc1ccc(cc1)OC2 | 7350 nM | 69 µM (≈ 51.8 µg/mL) | – | – |
| CCOc1cccc2c1OCC(=O)N[C@H]1CC[C@H](CC1)CC(=O)N[C@@H](CC1CCCCC1)C(=O)N[C@H](Cc1ccccc1)C(=O)N[C@H](C(=O)NC)Cc1ccc(cc1)OC2 | 101 nM | – | – | – |
| CCOc1cccc2c1OCC(=O)N[C@H]1CC[C@H](CC1)CC(=O)N[C@@H](CC1CCCCC1)C(=O)N[C@H](CC1CCCCC1)C(=O)N[C@H](C(=O)NC)Cc1ccc(cc1)OC2 | 271 nM | – | – | – |
| CCOc1cccc2c1OCC(=O)N[C@H]1CC[C@H](CC1)CC(=O)N[C@@H](CCS(C)(=O)=O)C(=O)N[C@H](Cc1ccccc1)C(=O)NCCc1ccc(cc1)OC2 | 80 nM | 5 µM (≈ 3.88 µg/mL) | – | – |
| CCOc1cccc2c1OCC(=O)N[C@H]1CC[C@H](CC1)CC(=O)N[C@@H]([C@@H](C)OC)C(=O)N[C@H](Cc1ccccc1)C(=O)NCCc1ccc(cc1)OC2 | 678 nM | 25 µM (≈ 18.2 µg/mL) | – | – |
| CCOc1cc(Oc2cc(C)c(Cl)c(C)c2)cc2c1OCC(=O)N[C@H]1CC[C@H](CC1)CC(=O)N[C@@H]([C@@H](C)OC)C(=O)N[C@H](Cc1ccncc1)C(=O)NCCc1ccc(cc1)OC2 | 9400 nM | < 2 µM | – | 1400 nM |
| CCOc1cccc2c1OCC(=O)N[C@H]1CC[C@H](CC1)CC(=O)N[C@@H](C1CCCCC1)C(=O)N[C@H](CC1CCCCC1)C(=O)N[C@H](C(=O)NC)Cc1ccc(cc1)OC2 | 179 nM | – | – | – |
| CCOc1cccc2c1OCC(=O)N[C@H]1CC[C@H](CC1)CC(=O)N[C@@H](c1ccccc1)C(=O)N(Cc1ccccc1)CC(=O)NCCc1ccc(cc1)OC2 | 234 nM | – | – | – |
| CCOc1cccc2c1OCC(=O)N[C@H]1CC[C@H](CC1)CC(=O)N[C@@H](c1ccccc1)C(=O)N[C@H](CC1CCCCC1)C(=O)N[C@H](C(=O)NC)Cc1ccc(cc1)OC2 | 64 nM | – | – | – |
| CC(C)C[C@@H]1NC(=O)C[C@H]2CC[C@H](CC2)NC(=O)COc2c(Cl)cccc2COc2ccc(cc2)CCNC(=O)[C@@H](Cc2ccccc2)NC1=O | 253 nM | – | – | – |
| CCOc1cccc2c1OC(C)(C)C(=O)N[C@H]1CC[C@H](CC1)CC(=O)N[C@@H](c1ccccc1)C(=O)N[C@H](CC1CCCCC1)C(=O)NCCc1ccc(cc1)OC2 | 124 nM | – | – | – |
| CCOc1cccc2c1OCC(=O)N[C@H]1CC[C@H](CC1)CC(=O)N[C@@H](c1ccccc1)C(=O)N[C@H](CC1CCCCC1)C(=O)NCCc1ccc(cc1)OC2 | 227 nM | – | – | – |
| CCOc1cccc2c1OCC(=O)N[C@H]1CC[C@H](CC1)CC(=O)N[C@@H](CCSC)C(=O)N[C@H](Cc1ccccc1)C(=O)NCCc1ccc(cc1)OC2 | 212 nM | 9 µM (≈ 6.7 µg/mL) | – | – |
| CCOc1cccc2c1OCC(=O)N[C@H]1CC[C@H](CC1)CC(=O)N[C@@H](C(C)C)C(=O)N[C@H](Cc1ccccc1)C(=O)N[C@H](C(=O)NC)Cc1ccc(cc1)OC2 | 298 nM | – | – | – |

Further lines, with some results ahead:

| IC50 [1] | solubility kinetic at 24 h [3] | Compound | IC50 (NCI-H929 [2]) | IC50 (NCI-H929 [4]) |
| --- | --- | --- | --- | --- |
| 7300 nM | – | CCOc1cc(C#Cc2cccc(F)c2)cc2c1OCC(=O)N[C@H]1CC[C@H](CC1)CC(=O)N[C@@H](c1ccccc1)C(=O)N[C@H](Cc1ccccc1)C(=O)NCCc1ccc(cc1)OC2 | 2200 nM | – |
| 59 nM | – | CCOc1cccc2c1OC(C)(C)C(=O)N[C@H]1CC[C@H](CC1)CC(=O)N[C@@H](c1ccccc1)C(=O)N[C@H](Cc1ccccc1)C(=O)NCCc1ccc(cc1)OC2 | – | – |
| 39000 nM | – | CCOc1cc(-c2ccc(C(F)(F)F)cc2)cc2c1OCC(=O)N[C@H]1CC[C@H](CC1)CC(=O)N[C@@H](c1ccccc1)C(=O)N[C@H](Cc1ccccc1)C(=O)NCCc1ccc(cc1)OC2 | 7100 nM | – |
| 50000 nM | – | CCOc1cc(-c2ccc(F)c(OC)c2)cc2c1OCC(=O)N[C@H]1CC[C@H](CC1)CC(=O)N[C@@H](c1ccccc1)C(=O)N[C@H](Cc1ccccc1)C(=O)NCCc1ccc(cc1)OC2 | 2100 nM | – |
| 174 nM | – | COc1cccc2c1OCC(=O)N[C@H]1CC[C@H](CC1)CC(=O)N[C@@H](c1ccccc1)C(=O)N[C@H](Cc1ccccc1)C(=O)NCCc1ccc(cc1)OC2 | – | – |
| 1370 nM | 37 µM (≈ 28.7 µg/mL) | CCOc1cccc2c1OCC(=O)N[C@H]1CC[C@H](CC1)CC(=O)N[C@@H](Cc1ccc(O)cc1)C(=O)N[C@H](Cc1ccccc1)C(=O)NCCc1ccc(cc1)OC2 | – | – |
| 78 nM | – | O=C1C[C@H]2CC[C@H](CC2)NC(=O)COc2c(Cl)cccc2COc2ccc(cc2)CCNC(=O)[C@@H](Cc2ccccc2)NC(=O)[C@H](c2ccccc2)N1 | – | – |
| 382 nM | – | CCOc1cccc2c1OCC(=O)N[C@H]1CC[C@H](CC1)CC(=O)N[C@@H](c1ccccc1)C(=O)N(C)[C@H](Cc1ccccc1)C(=O)NCCc1ccc(cc1)OC2 | – | – |
| 1430 nM | 4 µM (≈ 3.04 µg/mL) | CCOc1cccc2c1OCC(=O)N[C@H]1CC[C@H](CC1)CC(=O)N[C@@](C)(c1ccccc1)C(=O)N[C@H](Cc1ccccc1)C(=O)NCCc1ccc(cc1)OC2 | – | – |
| 54000 nM | – | CCOc1cc(-c2ccc(F)c(C)c2)cc2c1OCC(=O)N[C@H]1CC[C@H](CC1)CC(=O)N[C@@H](c1ccccc1)C(=O)N[C@H](Cc1ccccc1)C(=O)NCCc1ccc(cc1)OC2 | 2900 nM | – |
| 14000 nM | – | CCOc1cc(C#Cc2cc(C)cc(C)c2)cc2c1OCC(=O)N[C@H]1CC[C@H](CC1)CC(=O)N[C@@H](c1ccccc1)C(=O)N[C@H](Cc1ccccc1)C(=O)NCCc1ccc(cc1)OC2 | 3400 nM | – |
| 12000 nM | – | CCOc1cc(Oc2cccc(C(F)(F)F)c2)cc2c1OCC(=O)N[C@H]1CC[C@H](CC1)CC(=O)N[C@@H](c1ccccc1)C(=O)N[C@H](Cc1ccccc1)C(=O)NCCc1ccc(cc1)OC2 | 180 nM | – |
| 12000 nM | – | CCOc1cc(Oc2cccc3ccccc23)cc2c1OCC(=O)N[C@H]1CC[C@H](CC1)CC(=O)N[C@@H](c1ccccc1)C(=O)N[C@H](Cc1ccccc1)C(=O)NCCc1ccc(cc1)OC2 | 170 nM | – |
| 15000 nM | – | CCOc1cc(-c2cc(C)cc(C)c2)cc2c1OCC(=O)N[C@H]1CC[C@H](CC1)CC(=O)N[C@@H](c1ccccc1)C(=O)N[C@H](Cc1ccccc1)C(=O)NCCc1ccc(cc1)OC2 | > 10000 nM | – |
| 1440 nM | 1 µM (≈ 0.8 µg/mL) | CCOc1cccc2c1OCC(=O)N[C@H]1CC[C@H](CC1)CC(=O)N[C@@H](Cc1c[nH]c3ccccc13)C(=O)N[C@H](Cc1ccccc1)C(=O)NCCc1ccc(cc1)OC2 | – | – |
| 1800 nM | – | CCOc1cc(C#Cc2ccc(C(C)(C)C)cc2)cc2c1OCC(=O)N[C@H]1CC[C@H](CC1)CC(=O)N[C@@H](c1ccccc1)C(=O)N[C@H](Cc1ccccc1)C(=O)NCCc1ccc(cc1)OC2 | 9900 nM | – |
| 7100 nM | – | CCOc1cccc2c1OCC(=O)N[C@H]1CC[C@H](CC1)CC(=O)N[C@H](c1ccccc1)C(=O)N[C@H](Cc1ccccc1)C(=O)NCCc1ccc(cc1)OC2 | – | – |
| 5600 nM | – | CCOc1cc(C#Cc2cc(F)cc(F)c2)cc2c1OCC(=O)N[C@H]1CC[C@H](CC1)CC(=O)N[C@@H](c1ccccc1)C(=O)N[C@H](Cc1ccccc1)C(=O)NCCc1ccc(cc1)OC2 | 3300 nM | – |
| 43 nM | 6 µM (≈ 4.49 µg/mL) | CCOc1cccc2c1OCC(=O)N[C@H]1CC[C@H](CC1)CC(=O)N[C@@H](c1cccnc1)C(=O)N[C@H](Cc1ccccc1)C(=O)NCCc1ccc(cc1)OC2 | – | – |
| > 30000 nM | – | CCOc1cccc2c1OCC(=O)N[C@H]1CC[C@H](CC1)CC(=O)N(C)[C@@H](c1ccccc1)C(=O)N[C@H](Cc1ccccc1)C(=O)NCCc1ccc(cc1)OC2 | – | – |
| 90 nM | – | CCOc1cccc2c1OCC(=O)N[C@H]1CC[C@H](CC1)CC(=O)N[C@@H](CC(C)C)C(=O)N[C@H](Cc1ccccc1)C(=O)NCCc1ccc(cc1)OC2 | – | – |
| 8000 nM | – | CCOc1cc(C#Cc2ccc(OC)cc2)cc2c1OCC(=O)N[C@H]1CC[C@H](CC1)CC(=O)N[C@@H](c1ccccc1)C(=O)N[C@H](Cc1ccccc1)C(=O)NCCc1ccc(cc1)OC2 | 1400 nM | – |
| 22000 nM | – | CCOc1cc(Oc2cccc(Cl)c2)cc2c1OCC(=O)N[C@H]1CC[C@H](CC1)CC(=O)N[C@@H](c1ccccc1)C(=O)N[C@H](Cc1ccccc1)C(=O)NCCc1ccc(cc1)OC2 | 330 nM | – |
| 34 nM | 3 µM (≈ 2.33 µg/mL) | CCOc1cccc2c1OCC(=O)N[C@H]1CC[C@H](CC1)CC(=O)N[C@@H](c1ccnc(OC)c1)C(=O)N[C@H](Cc1ccccc1)C(=O)NCCc1ccc(cc1)OC2 | – | – |
| 21800 nM | – | CCOc1cccc2c1OCC(=O)N[C@H]1CC[C@H](CC1)CC(=O)N[C@@H](c1ccccc1)C(=O)N[C@H](Cc1ccccc1)C(=O)N(C)CCc1ccc(cc1)OC2 (mixture of isomers) | – | – |
